Assay results taken from patent US20110091485A1, “MODULATION OF CELL JUNCTIONS” (priority 2007, published 2011).
Where a SMILES comes first, the peptide text is derived from it. [ ]: non-standard residue; d: D form. Nle = CCCC[C@H](N)C(=O)O

Key:
Cx43 = Cx43 levels and Y247 phosphorylation in LA25 cells treated with ALLN (immunoblot); type: cell-based; details: LA25 cells at 35° C. (src active), ALLN 3 h
Experimental: FIG. 16. (A) Src activity leads to reduced levels of Cx43 in gap junctions unless rescued by ALLN treatment. LA25 cells grown at 40° C. or 35° C. (permissive) were untreated or treated with ALLN for 3 h and total Cx43 levels were determined by immunoblot. […] Cells grown at 35° C. were treated with ALLN for 3 h or untreated and pY247 and pY265 levels relative to total Cx43 were determined. In both A & B total cell lysates were harvested, blotted and probed (n=4 separate expts).

GJC = details: cited from earlier work
Gp140 [1] = molecular target: T1, Gp140 (Homo sapiens, UniProt Q9H5V8); experiment: α-catenin localization in cell-cell contacts of keratinocytes grown in low Ca+2; type: cell-based; details: 30 μM Ca+2, suramin 35 μM, 3 hrs
T1 construct: endogenous in cells; host or cells: human keratinocytes (HKs)
Experimental: FIG. 25. Signals through Gp140/CDCP1 promote α-catenin in cell-cell contacts. Human keratinocytes were grown in low Ca^+2 (30 μM) in order to disassemble adherens junctions that contain cadherins and α-catenin. The keratinocytes were treated without (−Left panel) or with (+Right Panel) Gp140 siRNA to knockdown expression of Gp140. […] Arrows indicate minor subpopulation of cells where Gp140 was not knocked down surrounded by the majority of Gp140 was knocked down.
Signals through Gp140/CDCP1 promote α-catenin in cell-cell contacts. Human keratinocytes were grown in low Ca^+2 (30 μM) in order to disassemble adherens junctions that contain cadherins and α-catenin. The keratinocytes were treated without or with Gp140 siRNA to knockdown expression of Gp140. […] Arrows indicate minor subpopulation of cells where Gp140 was not knocked down surrounded by the majority of Gp140 was knocked down.

Gp140 [2] = molecular target: T2, Gp140 (Mus musculus, UniProt Q5U462); details: cited from earlier work
T2 construct: from tissue; host or cells: mouse epidermis

Gp140 [3] = molecular target: T1, Gp140; experiment: Phosphorylation of Gp140, SFK and PKCδ in keratinocytes (immunoblotting); type: cell-based; details: 5 min
Gp140 [4] = molecular target: T1, Gp140; type: cell-based; details: keratinocytes, P1C3 15 min, suramin 35 μM
Experimental: Zymosan or ActGp140 mAb were added to keratinocytes and incubated (30 min), washed, fixed (2% formaldehyde in cacodylate, 10 min) and permeabilized (0.5% Triton-X100, 5 min).
Human keratinocytes were grown in 30 μM Ca^+2 then treated with zymosan (20 μg/10^6 cells) for 30 min or 2 h, extracted with Triton X-100 (0.5% for 5 min) and fixed and stained with Abs against ZO-1 and afadin (AF-6).
Keratinocytes were treated (2 h) with ActGp140 mAb, washed, extracted with Triton X-100 detergent (0.5%, 5 min, 4° C.), fixed and stained with Abs against the indicated proteins.
Keratinocytes (grown in 30 μM Ca^+2) were untreated or treated with ActGp140 or NActGp140 mAbs for 1.5 hrs, washed, extracted with Triton X-100 (0.5% at 4° C. for 5 min) then stained.
(b-c) anti-Gp140 mAb (P1C3). (d) Same field as c stained with Abs against Gp140pY734.

SFKs = experiment: SFK inhibition with PP2 in keratinocytes (Cx43 immunofluorescence, scratch wound); type: cell-based
Experimental: FIG. 13. […] Keratinocytes were pretreated with PP2 (5 μM, 2 h), scratch wounded and after 12 h were fixed in cold methoano/acetone and processed for immunofluorescence for total Cx43 (green). Cell nuclei were stained with DAPI (blue) and the scratched area is shown by an arrow.

T1 sequence (Q9H5V8 30-836): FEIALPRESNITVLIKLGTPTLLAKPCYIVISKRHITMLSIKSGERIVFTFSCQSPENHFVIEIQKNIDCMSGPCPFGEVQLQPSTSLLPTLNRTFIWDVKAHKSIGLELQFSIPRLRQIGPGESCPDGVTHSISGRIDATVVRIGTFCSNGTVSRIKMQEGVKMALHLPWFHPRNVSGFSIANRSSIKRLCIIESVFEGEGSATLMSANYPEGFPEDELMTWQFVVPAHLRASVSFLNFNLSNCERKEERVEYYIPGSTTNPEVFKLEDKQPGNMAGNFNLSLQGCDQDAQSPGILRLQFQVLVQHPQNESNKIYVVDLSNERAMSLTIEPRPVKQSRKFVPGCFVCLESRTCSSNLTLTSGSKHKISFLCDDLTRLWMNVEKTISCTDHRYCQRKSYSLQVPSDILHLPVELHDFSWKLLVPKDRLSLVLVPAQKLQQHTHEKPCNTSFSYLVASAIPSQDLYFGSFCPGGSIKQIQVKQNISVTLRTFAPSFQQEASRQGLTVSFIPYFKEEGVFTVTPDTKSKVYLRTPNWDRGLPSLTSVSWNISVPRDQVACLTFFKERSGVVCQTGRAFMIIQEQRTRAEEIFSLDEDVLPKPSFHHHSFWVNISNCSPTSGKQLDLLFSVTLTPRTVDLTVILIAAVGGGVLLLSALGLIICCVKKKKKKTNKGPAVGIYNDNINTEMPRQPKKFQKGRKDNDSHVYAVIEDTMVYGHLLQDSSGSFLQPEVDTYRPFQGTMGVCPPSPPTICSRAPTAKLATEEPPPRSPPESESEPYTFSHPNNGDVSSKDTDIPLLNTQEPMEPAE
T2 sequence (Q5U462 30-833): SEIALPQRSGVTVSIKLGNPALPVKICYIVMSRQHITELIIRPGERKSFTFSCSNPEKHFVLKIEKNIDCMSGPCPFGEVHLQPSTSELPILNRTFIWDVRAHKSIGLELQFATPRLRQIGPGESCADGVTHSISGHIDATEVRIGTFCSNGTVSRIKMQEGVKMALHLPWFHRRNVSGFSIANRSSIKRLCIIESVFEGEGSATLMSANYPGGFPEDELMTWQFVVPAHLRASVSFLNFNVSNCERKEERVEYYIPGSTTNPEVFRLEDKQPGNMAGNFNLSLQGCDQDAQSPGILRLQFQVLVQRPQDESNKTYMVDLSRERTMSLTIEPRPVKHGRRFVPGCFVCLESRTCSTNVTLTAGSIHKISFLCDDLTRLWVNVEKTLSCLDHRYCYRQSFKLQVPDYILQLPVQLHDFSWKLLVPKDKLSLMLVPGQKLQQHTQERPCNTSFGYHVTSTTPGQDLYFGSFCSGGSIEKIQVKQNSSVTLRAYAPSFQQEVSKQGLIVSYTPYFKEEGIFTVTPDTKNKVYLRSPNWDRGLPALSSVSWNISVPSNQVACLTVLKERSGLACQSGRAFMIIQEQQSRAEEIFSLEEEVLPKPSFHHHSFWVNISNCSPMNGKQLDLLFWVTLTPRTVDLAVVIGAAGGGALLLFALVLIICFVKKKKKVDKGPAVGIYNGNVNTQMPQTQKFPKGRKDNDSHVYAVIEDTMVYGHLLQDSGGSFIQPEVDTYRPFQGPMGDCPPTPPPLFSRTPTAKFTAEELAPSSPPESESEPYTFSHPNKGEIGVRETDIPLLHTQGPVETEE

Structure (SMILES): CCCC[C@@H](C=O)NC(=O)[C@H](CC(C)C)NC(=O)[C@H](CC(C)C)NC(C)=O [ALLN] (Ac-Leu-Leu-[Nle]-aldehyde)
- Y247 phosphorylation relative to total Cx43 (Cx43): increases the levels of Y247 phosphorylation relative to total Cx43

Structure (SMILES): CC1(C)[C@@H](OC(=O)CCC(=O)O)CC[C@]2(C)[C@H]3C(=O)C=C4[C@@H]5C[C@@](C)(C(=O)O)CC[C@]5(C)CC[C@@]4(C)[C@]3(C)CC[C@@H]12 [CBX, 18α-carbenoxalone]
- wound outgrowth (GJC): prevents wound outgrowth when applied before, but not after wounding

Structure (SMILES): Cc1ccc(C(=O)Nc2ccc(S(=O)(=O)O)c3cc(S(=O)(=O)O)cc(S(=O)(=O)O)c23)cc1NC(=O)c1cccc(NC(=O)Nc2cccc(C(=O)Nc3cc(C(=O)Nc4ccc(S(=O)(=O)O)c5cc(S(=O)(=O)O)cc(S(=O)(=O)O)c45)ccc3C)c2)c1 [suramin]
- α-catenin in cell-cell contacts (Gp140 [1]): dramatic accumulation of α-catenin in cell-cell contacts
- phosphorylation and cleavage of Gp140 in mouse epidermis (Gp140 [2]): induces phosphorylation and proteolytic cleavage of Gp140 to p80
- PKC activity determined by phosphorylation of VaspS157 (Gp140 [3]): increased
- phosphorylation of Gp140Y734, SFKY416 and PKCdY311 by SFKs (Gp140 [3]; suramin 35 μM): increased phosphorylation
- phosphorylation and assembly of Gp140 in detergent-resistant membrane clusters in cell-cell contacts (Gp140 [4]): increases phosphorylation and assembly of Gp140 in detergent-resistant Gp140 membrane clusters

Structure (SMILES): CC(C)(C)n1nc(-c2ccc(Cl)cc2)c2c(N)ncnc21 [PP2]
- gap junctional density at wound cell-cell interfaces (total Cx43) (SFKs; PP2 5 μM, 2 h pretreatment, scratch wound, 12 h): increases gap junctional density at wound cell-cell interfaces
- cell surface Gp140, junctional Cx43 and dye transfer (SFKs; keratinocytes): dramatic increases in cell surface Gp140 and junctional Cx43 and dye transfer
